Laboratory results published in patent US8822462B2, “Subunit selective NMDA receptor potentiators for the treatment of neurological conditions” (Emory University, priority 2009, dated 2014).

Key:
NR1/NR2B = target: T1, NR1/NR2B (Homo sapiens, UniProt Q05586+Q13224); assay: Two electrode voltage clamp, Xenopus laevis oocytes expressing NR1/NR2B; type: cell-based; settings: for IC50: fitted to composite concentration-effect data, Max 0 = inhibition, read-out: 2B IC50
T1 construct: expressed in transfected cells; host or cells: Xenopus laevis oocytes
Method: (§1) In the table above, potency is expressed as fitted EC50 value to average composite concentration-effect data constructed from current responses recorded under two electrode voltage clamp from Xenopus laevis oocytes expressing either NR1/NR2A, B, C, or D, GluR1, or GluR6. No effect means less than 20% change in response amplitude at 30 μM of drug.

NR1/NR2C = target: T2, NR1/NR2C (Homo sapiens, UniProt Q05586+Q14957); assay: Two electrode voltage clamp, Xenopus laevis oocytes expressing NR1/NR2C; type: cell-based; settings: for IC50: fitted to composite concentration-effect data, read-out: 2C IC50; for Emax: maximal effect of fit, read-out: 2C Max; for activity at 100 µM: read-out: 2C percent effect at the maximum tested concentration
T2 construct: expressed in transfected cells; host or cells: Xenopus laevis oocytes
Text: Values are mean+SEM (n=14-20). […] C is the closed level; broken line is the open level.
The Hill slope at both receptors for all analogues was greater than 1, consistent with a cooperative effect of binding at two sites.
as §1

NR1/NR2A = target: T3, NR1/NR2A (Homo sapiens, UniProt Q12879); assay: Two electrode voltage clamp, Xenopus laevis oocytes expressing NR1/NR2A; type: cell-based; settings: read-out: 2A percent effect at the maximum tested concentration
T3 construct: expressed in transfected cells; host or cells: Xenopus laevis oocytes
Method: as §1

NR1/NR2D = NR1/NR2D (Homo sapiens, UniProt O15399+Q05586); assay: Two electrode voltage clamp, Xenopus laevis oocytes expressing NR1/NR2D; settings: for Emax: read-out: 2D Max; for activity at 100 µM: read-out: 2D percent effect at the maximum tested concentration, at 100 μM
[1] = read-out: 2B percent effect at the maximum tested concentration

T3 sequence (Q12879 23-1464, species assumed, other chains not shown): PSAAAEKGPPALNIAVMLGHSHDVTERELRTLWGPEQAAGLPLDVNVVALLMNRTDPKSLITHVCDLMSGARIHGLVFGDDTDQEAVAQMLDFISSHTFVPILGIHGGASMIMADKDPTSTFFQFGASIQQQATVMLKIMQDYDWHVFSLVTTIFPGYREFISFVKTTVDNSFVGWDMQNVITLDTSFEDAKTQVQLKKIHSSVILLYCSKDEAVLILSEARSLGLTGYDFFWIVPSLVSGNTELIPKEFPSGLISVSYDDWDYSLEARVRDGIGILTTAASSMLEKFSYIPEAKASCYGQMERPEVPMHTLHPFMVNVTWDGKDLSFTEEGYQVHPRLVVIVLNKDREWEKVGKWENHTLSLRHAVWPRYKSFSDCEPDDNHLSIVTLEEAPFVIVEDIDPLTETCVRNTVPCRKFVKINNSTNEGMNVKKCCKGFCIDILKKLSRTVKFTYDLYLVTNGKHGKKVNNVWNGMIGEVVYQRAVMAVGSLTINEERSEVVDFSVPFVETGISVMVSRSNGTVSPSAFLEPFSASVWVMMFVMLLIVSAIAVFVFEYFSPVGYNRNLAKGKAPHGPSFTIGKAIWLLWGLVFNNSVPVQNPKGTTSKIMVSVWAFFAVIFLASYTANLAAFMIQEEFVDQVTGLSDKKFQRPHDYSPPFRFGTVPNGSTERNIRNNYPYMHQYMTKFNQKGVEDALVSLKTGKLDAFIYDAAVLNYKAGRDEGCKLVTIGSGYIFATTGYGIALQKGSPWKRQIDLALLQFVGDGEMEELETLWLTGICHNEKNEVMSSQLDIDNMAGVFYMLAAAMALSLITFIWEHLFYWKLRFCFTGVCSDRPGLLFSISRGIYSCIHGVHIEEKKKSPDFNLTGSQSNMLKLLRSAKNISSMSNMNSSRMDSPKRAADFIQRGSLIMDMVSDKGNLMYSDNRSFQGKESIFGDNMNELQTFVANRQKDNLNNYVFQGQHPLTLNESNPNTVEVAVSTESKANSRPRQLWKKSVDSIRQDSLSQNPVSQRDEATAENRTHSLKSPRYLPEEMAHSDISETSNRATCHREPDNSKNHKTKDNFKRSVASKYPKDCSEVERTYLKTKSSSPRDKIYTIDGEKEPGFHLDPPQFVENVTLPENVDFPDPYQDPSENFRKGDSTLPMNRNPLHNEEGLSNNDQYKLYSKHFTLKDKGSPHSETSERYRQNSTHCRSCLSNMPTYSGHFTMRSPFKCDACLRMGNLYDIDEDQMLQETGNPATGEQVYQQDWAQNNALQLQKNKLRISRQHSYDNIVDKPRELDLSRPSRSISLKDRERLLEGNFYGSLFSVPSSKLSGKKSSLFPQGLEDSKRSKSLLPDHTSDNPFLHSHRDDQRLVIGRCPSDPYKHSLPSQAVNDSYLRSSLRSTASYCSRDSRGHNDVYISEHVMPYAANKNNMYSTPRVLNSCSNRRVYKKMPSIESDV
NR1/NR2D, sequence (O15399 28-1336, species assumed, other chains not shown): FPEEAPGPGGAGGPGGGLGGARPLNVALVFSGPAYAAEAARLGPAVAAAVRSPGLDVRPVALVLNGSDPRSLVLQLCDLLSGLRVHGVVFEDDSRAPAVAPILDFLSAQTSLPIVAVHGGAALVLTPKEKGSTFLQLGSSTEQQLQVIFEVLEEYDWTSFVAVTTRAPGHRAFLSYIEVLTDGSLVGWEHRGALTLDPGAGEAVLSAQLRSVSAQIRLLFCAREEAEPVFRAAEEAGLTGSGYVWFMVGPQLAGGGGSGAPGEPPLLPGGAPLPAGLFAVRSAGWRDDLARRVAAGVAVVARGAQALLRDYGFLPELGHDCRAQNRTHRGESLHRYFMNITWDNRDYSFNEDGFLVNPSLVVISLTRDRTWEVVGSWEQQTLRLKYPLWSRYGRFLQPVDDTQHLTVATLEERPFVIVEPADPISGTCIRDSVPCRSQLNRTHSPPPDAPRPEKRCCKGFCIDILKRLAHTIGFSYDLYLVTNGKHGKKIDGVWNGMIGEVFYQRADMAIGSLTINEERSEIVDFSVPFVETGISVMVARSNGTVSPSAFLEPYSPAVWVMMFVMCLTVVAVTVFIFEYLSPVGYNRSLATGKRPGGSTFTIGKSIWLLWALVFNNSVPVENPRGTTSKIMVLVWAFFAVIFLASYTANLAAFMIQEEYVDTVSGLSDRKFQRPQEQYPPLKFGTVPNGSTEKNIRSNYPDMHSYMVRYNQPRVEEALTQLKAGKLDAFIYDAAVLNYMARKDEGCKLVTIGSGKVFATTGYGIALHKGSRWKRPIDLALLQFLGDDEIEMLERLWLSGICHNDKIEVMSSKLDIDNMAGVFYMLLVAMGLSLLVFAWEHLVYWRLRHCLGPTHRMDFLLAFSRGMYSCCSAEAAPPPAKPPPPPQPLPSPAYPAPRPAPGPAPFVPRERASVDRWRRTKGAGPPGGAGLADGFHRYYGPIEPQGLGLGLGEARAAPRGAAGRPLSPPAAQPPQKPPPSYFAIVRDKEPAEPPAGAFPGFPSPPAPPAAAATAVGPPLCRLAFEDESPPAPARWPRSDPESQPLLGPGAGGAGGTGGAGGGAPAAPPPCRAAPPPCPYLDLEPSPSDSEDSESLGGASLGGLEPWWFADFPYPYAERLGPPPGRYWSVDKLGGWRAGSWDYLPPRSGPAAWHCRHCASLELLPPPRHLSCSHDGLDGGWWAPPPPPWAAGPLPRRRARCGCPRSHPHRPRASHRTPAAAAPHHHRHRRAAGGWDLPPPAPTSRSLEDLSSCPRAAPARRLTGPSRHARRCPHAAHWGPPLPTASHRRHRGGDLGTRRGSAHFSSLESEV
T1 sequence (Q13224 27-1484, species assumed, other chains not shown): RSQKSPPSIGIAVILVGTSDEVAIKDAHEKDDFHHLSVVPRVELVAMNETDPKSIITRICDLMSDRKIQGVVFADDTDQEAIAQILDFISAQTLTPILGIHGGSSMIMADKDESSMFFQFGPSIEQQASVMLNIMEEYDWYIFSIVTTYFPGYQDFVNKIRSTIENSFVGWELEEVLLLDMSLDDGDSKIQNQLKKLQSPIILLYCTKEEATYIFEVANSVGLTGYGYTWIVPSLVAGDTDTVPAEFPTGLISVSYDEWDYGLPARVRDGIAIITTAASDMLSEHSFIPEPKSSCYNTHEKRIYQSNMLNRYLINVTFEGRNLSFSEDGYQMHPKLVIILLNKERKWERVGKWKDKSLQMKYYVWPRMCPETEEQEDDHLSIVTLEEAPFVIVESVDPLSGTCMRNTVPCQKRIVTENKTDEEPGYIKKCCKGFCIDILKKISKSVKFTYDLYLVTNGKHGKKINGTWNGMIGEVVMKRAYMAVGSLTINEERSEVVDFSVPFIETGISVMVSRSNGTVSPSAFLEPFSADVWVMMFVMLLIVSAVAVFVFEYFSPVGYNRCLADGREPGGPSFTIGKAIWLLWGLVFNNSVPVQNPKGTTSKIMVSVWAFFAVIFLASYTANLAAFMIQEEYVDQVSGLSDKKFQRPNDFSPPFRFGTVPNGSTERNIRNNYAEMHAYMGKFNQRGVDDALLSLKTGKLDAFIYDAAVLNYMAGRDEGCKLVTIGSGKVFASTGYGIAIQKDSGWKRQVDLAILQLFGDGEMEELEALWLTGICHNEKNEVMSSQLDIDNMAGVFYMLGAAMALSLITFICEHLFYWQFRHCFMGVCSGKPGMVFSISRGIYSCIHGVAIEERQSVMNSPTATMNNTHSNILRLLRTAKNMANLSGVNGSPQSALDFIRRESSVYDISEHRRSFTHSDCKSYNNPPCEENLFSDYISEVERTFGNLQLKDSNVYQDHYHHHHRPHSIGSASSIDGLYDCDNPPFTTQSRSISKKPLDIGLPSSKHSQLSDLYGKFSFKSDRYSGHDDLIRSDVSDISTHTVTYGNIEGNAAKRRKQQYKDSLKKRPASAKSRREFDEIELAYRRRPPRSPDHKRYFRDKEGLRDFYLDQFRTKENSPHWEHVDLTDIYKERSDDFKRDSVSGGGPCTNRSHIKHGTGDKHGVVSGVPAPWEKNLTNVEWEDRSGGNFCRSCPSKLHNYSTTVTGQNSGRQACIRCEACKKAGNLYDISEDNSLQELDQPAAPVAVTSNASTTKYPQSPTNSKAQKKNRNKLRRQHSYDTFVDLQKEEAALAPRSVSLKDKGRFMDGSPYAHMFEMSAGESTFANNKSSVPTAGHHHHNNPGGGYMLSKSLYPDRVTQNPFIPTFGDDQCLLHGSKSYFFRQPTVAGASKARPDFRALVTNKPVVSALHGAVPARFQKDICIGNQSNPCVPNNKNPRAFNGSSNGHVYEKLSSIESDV

activity at 100 µM (NR1/NR2B; [1]) [%]	activity at 100 µM (NR1/NR2A) [%]	activity at 100 µM (NR1/NR2C) [%]	activity at 100 µM (NR1/NR2D) [%]	activity at 20 µM (NR1/NR2B; at 20 μM, read-out: 2B percent effect at the maximum tested concentration) [%]	Structure (SMILES)	IC50 (NR1/NR2C) [µM]	Emax (NR1/NR2C) [%]	IC50 (NR1/NR2D) [µM]	Emax (NR1/NR2D) [%]	IC50 (NR1/NR2B) [µM]	activity at 30 µM (NR1/NR2B; at 30 μM, read-out: 2B percent effect at the maximum tested concentration) [%]	activity at 30 µM (NR1/NR2A; at 30 μM) [%]
97	96	95	81	–	Cc1cc(C(=O)O)c(NC(=O)c2ccccc2)s1 [compound 1396]	–	–	–	–	–	–	–
101	100	77	81	–	COc1cc2c(cc1OC)C(COc1ccccc1)N(C(=O)c1ccccc1)CC2 (stereo not shown) [1180-2]	–	–	–	–	–	–	–
–	81	78	86	–	O=C(O)c1c(NC(=O)c2cccc3ccccc23)sc2c1CCC2 [compound 1441]	–	–	–	–	43	–	–
83	92	86	85	–	CC(C)(C)c1ccc(NC(=O)C2CC=CCC2C(=O)O)cc1 (stereo not shown) [compound 1480]	–	–	–	–	–	–	–
89	80	96	86	–	CCOC(=O)c1cc(C)sc1NC(=O)c1ccc(C(C)(C)C)cc1 [compound 1400]	–	–	–	–	–	–	–
68	86	99	77	–	O=C(O)C1=C(NC(=O)c2ccc(Br)cc2)SC2CCCC12 (stereo not shown) [compound 1404]	–	–	–	–	–	–	–
97	94	102	113	–	CC(C)(C)c1ccc(C(=O)Nc2ccccc2C(=O)O)cc1 [compound 1479]	–	–	–	–	–	–	–
102	89	87	76	–	Cc1ccnc(NC(=O)c2ccc(C(C)(C)C)cc2)c1 [compound 1398]	–	–	–	–	–	–	–
92	94	75	75	–	COc1cccc(OCC2c3cc(OC)c(OC)cc3CCN2C(=O)c2ccccc2)c1 (stereo not shown) [1180-7]	–	–	–	–	–	–	–
97	87	109	99	–	COc1cc2c(cc1OC)C(COc1ccc(OC(F)(F)F)cc1)N(C(=O)c1cccc(Cl)c1)CC2 (stereo not shown) [1180-9]	–	–	–	–	–	–	–
97	118	94	75	–	COc1ccc(C(=O)Nc2sc(C)cc2C(=O)O)cc1 [compound 1420]	–	–	–	–	–	–	–
85	75	82	74	–	COc1ccc(OCC2c3cc(OC)c(OC)cc3CCN2C(=O)c2cccnc2)cc1 (stereo not shown) [compound 1485]	–	–	–	–	–	–	–
67	112	97	105	–	COc1cc2c(cc1OC)C(COc1ccc(SC)cc1)N(C(=O)c1cccc(Cl)c1)CC2 (stereo not shown) [1180-13]	–	–	–	–	–	–	–
78	95	83	76	–	CCc1ccc(C(=O)Nc2sccc2C(=O)O)cc1 [compound 1489]	–	–	–	–	–	–	–
97	93	94	88	–	COc1cccc(OCC2c3cc(OC)c(OC)cc3CCN2C(=O)c2cccc(Cl)c2)c1 (stereo not shown) [1180-6]	–	–	–	–	–	–	–
80	120	96	94	–	COc1ccc(OCC2c3cc(OC)c(OC)cc3CCN2C(=O)c2ccc(Br)cc2)cc1 (stereo not shown) [compound 1393]	–	–	–	–	–	–	–
91	93	97	90	–	O=C(O)C1=C(NC(=O)c2ccc(I)cc2)SC2CCCC12 (stereo not shown) [compound 1419]	–	–	–	–	–	–	–
119	113	97	–	–	CC1CCc2c(sc(NC(=O)c3ccc(C(C)(C)C)cc3)c2C(=O)O)C1 (stereo not shown) [compound 1481]	–	–	21	124	–	–	–

Continued, compound first:

Structure (SMILES)	activity at 100 µM (NR1/NR2B; [1]) [%]	activity at 100 µM (NR1/NR2A) [%]	activity at 100 µM (NR1/NR2C) [%]	activity at 100 µM (NR1/NR2D) [%]	activity at 20 µM (NR1/NR2B; at 20 μM, read-out: 2B percent effect at the maximum tested concentration) [%]	IC50 (NR1/NR2C) [µM]	Emax (NR1/NR2C) [%]	IC50 (NR1/NR2D) [µM]	Emax (NR1/NR2D) [%]	IC50 (NR1/NR2B) [µM]	activity at 30 µM (NR1/NR2B; at 30 μM, read-out: 2B percent effect at the maximum tested concentration) [%]	activity at 30 µM (NR1/NR2A; at 30 μM) [%]
COc1ccc(OCC2c3cc(OC)c(OC)cc3CCN2C(=O)c2cccc(C(F)(F)F)c2)cc1 (stereo not shown) [compound 1426]	86	88	–	–	–	2	171	2	204	–	–	–
COc1ccc(OCC2c3ccc(OC)cc3CCN2C(=O)c2cccc(Cl)c2)cc1 (stereo not shown) [1180-26]	75	93	–	–	–	0.8	196	1	185	–	–	–
COc1ccc(OCC2c3cc(OC)c(OC)cc3CCN2C(=O)c2cccc(F)c2)cc1 (stereo not shown) [compound 1369]	84	94	–	–	–	7	184	7	169	–	–	–
COc1ccc(-c2csc(NC(=O)c3ccc(C(C)(C)C)cc3)c2C(=O)O)cc1 [compound 1424]	–	123	–	–	–	42	434	43	475	19	–	–
COc1ccc(OCC2c3cc(OC)c(OC)cc3CCN2C(=O)N2CCOCC2)cc1 (stereo not shown) [1180-23]	61	140	87	78	–	–	–	–	–	–	–	–
Cc1sc(NC(=O)c2ccc(C(C)(C)C)cc2)c(C(=O)O)c1C [compound 1418]	115	99	–	–	–	33	187	35	195	–	–	–
COc1ccc(OCC2c3cc(OC)c(OC)cc3CCN2C(=O)c2cccc(OC)c2)cc1 (stereo not shown) [compound 1392]	59	104	–	–	–	6	181	12	179	–	–	–
COc1ccc(OCC2c3c(cc(OC)cc3OC)CCN2C(=O)c2cccc(Cl)c2)cc1 (stereo not shown) [1180-20]	86	92	–	–	–	11	253	18	271	–	–	–
COc1ccc(OCC2c3cc(OC)c(OC)cc3CCN2C(=O)c2cccc([N+](=O)[O-])c2)cc1 (stereo not shown) [1180-16]	123	50	–	–	–	13	267	16	297	–	–	–
COc1ccc(OCC2c3cc(OC)c(OC)cc3CCN2C(=O)c2cccs2)cc1 (stereo not shown) [compound 1486]	88	78	–	–	–	9	131	6	112	–	–	–
COc1ccc(OCC2c3cc(OC)c(OC)cc3CCN2C(=O)c2ccno2)cc1 (stereo not shown) [1180-5]	86	98	83	81	–	–	–	–	–	–	–	–
COc1cc2c(cc1OC)C(COc1ccc(F)cc1)N(C(=O)c1cccc(F)c1)CC2 (stereo not shown) [compound 1394]	61	101	71	68	–	–	–	–	–	–	–	–
CC(C)(C)c1ccc(C(=O)Nc2scc(-c3ccccc3)c2C(=O)O)cc1 [compound 1406]	–	75	–	–	–	45	341	44	351	37	–	–
CC(C)(C)c1ccc(C(=O)Nc2sc3c(c2C(=O)O)CCCC3)cc1 [compound 1417]	102	87	–	–	–	20	202	16	205	–	–	–
CC(C)(C)c1ccc(C(=O)Nc2sc3c(c2C(=O)O)CCC3)cc1 [compound 1399]	108	100	–	–	–	77	301	26	261	–	–	–
COc1ccc(OCC2c3cc(OC)c(OC)cc3CCN2C(=O)c2cccc(C)c2)cc1 (stereo not shown) [compound 1425]	94	74	–	–	–	5	208	5	172	–	–	–
COc1ccc(OCC2c3cc(OC)c(OC)cc3CCN2C(=O)c2ccc(F)c(Cl)c2)cc1 (stereo not shown) [1180-18]	95	136	–	–	–	6	226	7	206	–	–	–
COc1ccc(OCC2c3cc(OC)c(OC)cc3CCN2C(=O)CN2CCOCC2)cc1 (stereo not shown) [1180-24]	96	100	79	83	–	–	–	–	–	–	–	–
COc1ccc(/C=C/C2c3cc(OC)c(OC)cc3CCN2C(=O)c2cccc(Cl)c2)cc1 (stereo not shown) [1180-31]	–	–	–	–	–	1.2	190	1.5	172	–	82	95
COc1cc2c(cc1OC)C(COc1ccc(OCc3ccccc3)cc1)N(C(=O)c1cccc(Cl)c1)CC2 (stereo not shown) [1180-22]	–	95	79	58	50	–	–	–	–	–	–	–
COc1ccc(OCC2c3cc(OC)c(OC)cc3CCN2S(=O)(=O)c2ccccc2)cc1 (stereo not shown) [compound 1487]	71	89	69	79	–	–	–	–	–	–	–	–
